Tests used:
Assay in all cases: relative viability (nuclei count vs DMSO), 5 days (fraction); higher = more cells survive
[1] = compound: Cc1ccc(C(=O)N(CCCN)[C@@H](c2nc3cc(Cl)ccc3c(=O)n2Cc2ccccc2)C(C)C)cc1 [Ispinesib] + Cc1cc(Nc2cc(N3CCN(C)CC3)nc(Sc3ccc(NC(=O)C4CC4)cc3)n2)n[nH]1 [Tozasertib] (partner 0.1 µM)
Procedure, shortened: (§1)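 The day after seeding in 1536-well plates, lung cancer cell lines were treated by pin tool with a single drug, or with a fixed anchor-drug dose together with five library-drug doses (not always all listed) in √10 steps. After 5 days, a combined fix-and-stain solution (final 0.05% Triton X-100, 1% formaldehyde, 1 ug/ml Hoechst) was added. Nuclei counted on 4× images gave relative viability as treated counts over vehicle counts, reported as the median of duplicate plates.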

[2] = compound: Cc1ccc(C(=O)N(CCCN)[C@@H](c2nc3cc(Cl)ccc3c(=O)n2Cc2ccccc2)C(C)C)cc1 [Ispinesib] + CS(=O)(=O)CCNCc1ccc(-c2ccc3ncnc(Nc4ccc(OCc5cccc(F)c5)c(Cl)c4)c3c2)o1 [Lapatinib] (partner 2 µM)
Procedure, shortened: as §1

[3] = compound: C[C@]1(O)C[C@@H](c2nc(-c3ccc4ccc(-c5ccccc5)nc4c3)c3c(N)nccn32)C1 [Linsitinib] + N=C(N)NC(=N)NCCc1ccccc1 [Phenformin] (partner 250 µM)
Procedure, shortened: as §1

[4] = compound: Cc1ccc(C(=O)N(CCCN)[C@@H](c2nc3cc(Cl)ccc3c(=O)n2Cc2ccccc2)C(C)C)cc1 [Ispinesib]
Procedure, shortened: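 For viability, nuclei in each treated well were divided by nuclei in vehicle wells and the median across plates was taken. Lung cancer cell lines in 1536-well plates were pinned with five library-drug doses (not always all listed) spaced by √10, cultured 5 days without medium change, and imaged at 4× after Hoechst staining, with plates passing only at control CV below 25% and at least one doubling.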

| Cell Line | relative viability ([1]; first compound 0.001 µM) | relative viability ([1]; first compound 0.003162 µM) | relative viability ([1]; first compound 0.01 µM) | relative viability ([1]; first compound 0.03162 µM) | relative viability ([1]; first compound 0.1 µM) | relative viability ([2]; first compound 0.001 µM) | relative viability ([2]; first compound 0.003162 µM) | relative viability ([2]; first compound 0.01 µM) | relative viability ([2]; first compound 0.03162 µM) | relative viability ([2]; first compound 0.1 µM) | relative viability ([3]; first compound 0.01 µM) | relative viability ([3]; first compound 0.03162 µM) | relative viability ([3]; first compound 0.1 µM) | relative viability ([3]; first compound 0.3162 µM) | relative viability ([3]; first compound 1 µM) | relative viability ([4]; 0.001 µM) | relative viability ([4]; 0.003162 µM) | relative viability ([4]; 0.01 µM) | relative viability ([4]; 0.03162 µM) | relative viability ([4]; 0.1 µM) |
| --- | --- | --- | --- | --- | --- | --- | --- | --- | --- | --- | --- | --- | --- | --- | --- | --- | --- | --- | --- | --- |
| NCI-H2085 | 0.881 | 0.855 | 1 | 0.76 | 0.651 | 0.721 | 0.857 | 0.81 | 0.444 | 0.314 | 0.763 | 0.723 | 0.727 | 0.663 | 0.574 | 1.02 | 1.02 | 1.06 | 0.854 | 0.536 |
| NCI-H2087 | 0.301 | 0.246 | 0.29 | 0.261 | 0.155 | 0.92 | 1.04 | 1.35 | 0.293 | 0.182 | 0.498 | 0.54 | 0.417 | 0.222 | 0.365 | 1.01 | 1.03 | 1.23 | 0.335 | 0.137 |
| NCI-H2126 | 0.813 | 0.913 | 0.944 | 0.644 | 0.449 | 0.719 | 0.804 | 0.846 | 0.781 | 0.534 | 0.531 | 0.512 | 0.484 | 0.338 | 0.319 | 0.978 | 1.08 | 1.06 | 0.992 | 0.564 |
| NCI-H2170 | 0.741 | 0.689 | 0.848 | 0.556 | 0.41 | 0.265 | 0.252 | 0.269 | 0.182 | 0.214 | 0.432 | 0.379 | 0.364 | 0.24 | 0.348 | 1.03 | 1.05 | 1.08 | 0.599 | 0.253 |
| NCI-H2228 | 0.299 | 0.28 | 0.236 | 0.152 | 0.365 | 1.23 | 1.29 | 1.26 | 0.363 | 0.422 | 0.307 | 0.397 | 0.325 | 0.273 | 0.278 | 1.03 | 1 | 1.38 | 0.688 | 0.344 |
| NCI-H2347 | 0.529 | 0.545 | 0.65 | 0.55 | 0.52 | 0.943 | 1.05 | 0.957 | 0.667 | 0.774 | 0.391 | 0.534 | 0.385 | – | 0.467 | 1.03 | 1.1 | 1.13 | 0.897 | 0.87 |
| NCI-H2405 | 0.798 | 0.7 | 0.858 | 0.771 | 0.965 | 1.08 | 1.12 | 1.18 | 0.918 | 0.308 | 0.406 | 0.446 | 0.384 | 0.377 | 0.292 | 1.05 | 1.05 | 1.05 | 0.884 | 0.561 |

Reference: the supplement of paper PMC10307832
